Laboratory results published in ChEMBL document CHEMBL4396882, “2-Aminothiazole-4-carboxamides Enhance Readthrough of Premature Termination Codons by Aminoglycosides” (2019).
The source made the active and inactive calls. No cut-off for these calls is given here.

How the values were obtained:
HDQ-P1 [1] = assay: Induction of P53 expression in human HDQ-P1 cells assessed as enrichment ratio at 3 uM incubated for 72 hrs in presence of 50 uM G418 by Hoechst 33323 staining based fluorescence assay; format: functional
HDQ-P1 [2] = assay: Induction of P53 expression in human HDQ-P1 cells assessed as enrichment ratio at 10 uM incubated for 72 hrs in presence of 50 uM G418 by Hoechst 33323 staining based fluorescence assay; format: functional
HDQ-P1 [3] = assay: Induction of P53 expression in human HDQ-P1 cells assessed as enrichment ratio at 10 uM incubated for 72 hrs in presence of 25 uM G418 by automated electrophoresis western analysis; format: functional
HDQ-P1 [4] = assay: Induction of P53 expression in human HDQ-P1 cells assessed as enrichment ratio at 10 uM incubated for 72 hrs by automated electrophoresis western analysis; format: functional
HDQ-P1 [5] = assay: Induction of P53 expression in human HDQ-P1 cells assessed as enrichment ratio at 30 uM incubated for 72 hrs in presence of 25 uM G418 by automated electrophoresis western analysis; format: functional
HDQ-P1 [6] = assay: Induction of P53 expression in human HDQ-P1 cells assessed as enrichment ratio at 30 uM incubated for 72 hrs by automated electrophoresis western analysis; format: functional
HDQ-P1 [7] = assay: Induction of P53 expression in human HDQ-P1 cells assessed as enrichment ratio at 10 uM incubated for 72 hrs in presence of 50 uM G418 by automated electrophoresis western analysis; format: functional
HDQ-P1 [8] = assay: Effect on human HDQ-P1 cells assessed as increase in TP53 R213X mRNA level at 10 uM incubated for 72 hrs in presence of G418 by RT-qPCR analysis; format: functional, cell-based
HDQ-P1 [9] = assay: Cytotoxicity in human HDQ-P1 cells assessed as reduction in cell viability at 1 uM incubated for 72 hrs by MTT assay; format: functional, cell-based
HDQ-P1 [10] = assay: Effect on human HDQ-P1 cells assessed as increase in TP53 R213X mRNA level at 10 uM incubated for 72 hrs by RT-qPCR analysis; format: functional, cell-based
HDQ-P1 [11] = assay: Cytotoxicity in human HDQ-P1 cells assessed as reduction in cell viability incubated for 72 hrs in presence of G418 by MTT assay; format: functional, cell-based
HDQ-P1 [12] = assay: Induction of P53 expression in human HDQ-P1 cells assessed as enrichment ratio at 3 uM incubated for 72 hrs in presence of 50 uM G418 by automated electrophoresis western analysis; format: functional
HDQ-P1 [13] = assay: Ratio of enrichment ratio of test compound at 10 uM to enrichment ratio of CDX5-1 at 30 uM in human HDQ-P1 cells by automated electrophoresis western analysis; format: functional
HDQ-P1 [14] = assay: Cytotoxicity in human HDQ-P1 cells assessed as reduction in cell viability at 3 uM incubated for 72 hrs by MTT assay relative to control; format: functional
HDQ-P1 [15] = assay: Induction of P53 expression in human HDQ-P1 cells assessed as enrichment ratio at 3 uM incubated for 72 hrs in presence of gentamicin by automated electrophoresis western analysis; format: functional

SMILES | Ratio (HDQ-P1 [1]) | Ratio (HDQ-P1 [2]) | Ratio (HDQ-P1 [7]) | Ratio (HDQ-P1 [12]) | other results
COc1ccc(NC(=O)c2csc(Nc3cccc4[nH]ncc34)n2)cc1 | 1.6 | 5.9 | – | – | –
O=C1NC(=O)c2cc(NCc3c(Cl)cccc3Cl)ccc21 | – | – | – | – | Ratio (HDQ-P1 [3]): 2.8; Ratio (HDQ-P1 [4]): 0.1; Ratio (HDQ-P1 [5]): 8.3; Ratio (HDQ-P1 [6]): 0.1
O=C(Nc1ccc2c(c1)OCO2)c1cnc(Nc2ccc3[nH]ncc3c2)s1 | 1.2 | 19.2 | – | – | –
O=C(Nc1ccc(F)cc1)c1csc(Nc2cccc3[nH]ncc23)n1 | 13.1 | 23.3 | 23.3 | 13.1 | Activity (HDQ-P1 [8]): inactive; Activity (HDQ-P1 [9]): inactive; Activity (HDQ-P1 [10]): inactive; Ratio (HDQ-P1 [3]): 25.7; Ratio (HDQ-P1 [4]): 0.3; Activity (HDQ-P1 [11]): Active; Ratio (HDQ-P1 [13]): 3; Activity (HDQ-P1 [14]): 42%
CSc1ccc(NC(=O)c2csc(Nc3cccc4[nH]ncc34)n2)cc1 | 8.2 | 20.1 | 7.2 | 5.3 | Activity (HDQ-P1 [8]): inactive; Activity (HDQ-P1 [9]): inactive; Activity (HDQ-P1 [10]): inactive; Ratio (HDQ-P1 [3]): 8.8; Ratio (HDQ-P1 [4]): 0.1; Activity (HDQ-P1 [11]): Active; Ratio (HDQ-P1 [13]): 3; Ratio (HDQ-P1 [15]): 10.8; Activity (HDQ-P1 [14]): 60%
O=C(Nc1ccc2c(c1)OCO2)c1csc(Nc2ccc3[nH]ncc3c2)n1 | 1.2 | 5.4 | – | – | –
O=C(Nc1ccc2c(c1)OCCO2)c1csc(Nc2cccc3[nH]ncc23)n1 | 3.4 | 15.8 | 15.8 | 3.4 | –
COc1ccc(NC(=O)c2csc(Nc3cccc4[nH]ncc34)n2)cn1 | 1.4 | 27.2 | – | – | –
O=C(Nc1ccc2c(c1)OCCO2)c1csc(Nc2ccc(=O)[nH]c2)n1 | 3.8 | 7 | 2.3 | 2.4 | –
O=C(Nc1ccc2[nH]ncc2c1)c1csc(Nc2ccc3[nH]ccc3c2)n1 | 1.4 | 8 | – | – | –
CSc1ccc(NC(=O)c2cnc(Nc3ccc4[nH]ncc4c3)s2)cc1 | 1.6 | 4.7 | – | – | –
COc1ccc(NC(=O)c2cnc(Nc3ccc4[nH]ncc4c3)s2)cn1 | 2.2 | 7.8 | – | – | –
O=C(Nc1ccc2c(c1)OCCO2)c1csc(Nc2ccc3ncccc3c2)n1 | 1.6 | 8.7 | – | – | –
O=C(Nc1ccc2[nH]ccc2c1)c1csc(Nc2ccc3[nH]ncc3c2)n1 | 1.3 | 23 | – | – | –
O=C(Nc1ccc2c(c1)OCO2)c1csc(Nc2ccc3ncccc3c2)n1 | 3.5 | 10.7 | 10.7 | 3.6 | –
O=C(Nc1ccccc1)c1csc(Nc2ccc3[nH]ncc3c2)n1 | 2.5 | 11.2 | – | – | –
COc1cc(NC(=O)c2csc(Nc3cccc4[nH]ncc34)n2)cc(OC)c1OC | 5.3 | 7.2 | 20.1 | 8.2 | –
